The test has as its system P388 leukemia ip, CD2F1 mice, survival T/C. Briefly: NCI In Vivo Anticancer Drug Screen. Data for tumor model P388 Leukemia (intraperitoneal) in CD2F1 (CDF1) mice. The settings on record: endpoint: median survival time, higher = longer survival. A digest of the protocol:
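Mice carrying the transplanted tumor received test compound or vehicle. Survival was recorded in each group, and the value is the treated-group measurement divided by that of the vehicle-treated control group.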

Setting [1] is: dose: 25.0 mg/kg/injection, schedule: Q01DX009 (ip), vehicle: saline with Tween-80.
Setting [2] is: dose: 50.0 mg/kg/injection, schedule: Q01DX009 (ip), vehicle: saline with Tween-80.
[3] abbreviates: dose: 100.0 mg/kg/injection, schedule: Q01DX001 (ip), vehicle: saline with Tween-80.
Where [4] appears, read: dose: 100.0 mg/kg/injection, schedule: Q01DX005 (ip), vehicle: saline with Tween-80.
Setting [5] is: dose: 100.0 mg/kg/injection, schedule: Q01DX009 (ip), vehicle: saline with Tween-80.
Where [6] appears, read: dose: 200.0 mg/kg/injection, schedule: Q01DX001 (ip), vehicle: saline with Tween-80.
The mark [7] stands for this setting: dose: 50.0 mg/kg/injection, schedule: Q01DX009 (ip), vehicle: Klucel (hydroxypropylcellulose) (HPC).
Where [8] appears, read: dose: 100.0 mg/kg/injection, schedule: Q01DX009 (ip), vehicle: Klucel (hydroxypropylcellulose) (HPC).
The mark [9] stands for this setting: dose: 50.0 mg/kg/injection, schedule: Q01DX009 (ip), vehicle: saline.
Setting [10] is: dose: 100.0 mg/kg/injection, schedule: Q01DX009 (ip), vehicle: saline.
Where [11] appears, read: dose: 100.0 mg/kg/injection, schedule: Q04DX003 (ip), vehicle: saline with Tween-80.
The mark [12] stands for this setting: dose: 25.0 mg/kg/injection, schedule: Q04DX003 (ip), vehicle: saline with Tween-80.
Setting [13] is: dose: 50.0 mg/kg/injection, schedule: Q04DX003 (ip), vehicle: saline with Tween-80.
Setting [14] is: dose: 50.0 mg/kg/injection, schedule: Q01DX005 (ip), vehicle: Klucel (hydroxypropylcellulose) (HPC).
[15] abbreviates: dose: 100.0 mg/kg/injection, schedule: Q01DX005 (ip), vehicle: Klucel (hydroxypropylcellulose) (HPC).
Setting [16] is: dose: 200.0 mg/kg/injection, schedule: Q01DX005 (ip), vehicle: Klucel (hydroxypropylcellulose) (HPC).
Setting [17] is: dose: 50.0 mg/kg/injection, schedule: Q01DX005 (ip), vehicle: saline with Tween-80.
The mark [18] stands for this setting: dose: 200.0 mg/kg/injection, schedule: Q01DX005 (ip), vehicle: saline with Tween-80.

The structures appear in SMILES notation. Values joined by “and” are separate entries in the source; they are usually repeats but may differ in a detail not shown here. Identical values can stand only once. Inconclusive results and toxic doses are left out. Square brackets hold non-standard residues; d marks the D form. Peptide text beside a SMILES is read from it. pGlu = O=C1CC[CH](C(=O)O)N1

As for `CS(=O)(=O)OCCCl`, the T/C under setting [1] was 105 % of control and 108 % of control; the T/C under setting [2] was 107 % of control and 112 % of control; the T/C (dose: 75.0 mg/kg/injection, schedule: Q01DX005 (ip), vehicle: saline with Tween-80) is 113 % of control and 86 % of control; the T/C (dose: 75.0 mg/kg/injection, schedule: Q01DX009 (ip), vehicle: saline with Tween-80) is 102 % of control; the T/C under setting [3] was 100 % of control; the T/C under setting [4] was 114 % of control and 94 % of control. Also, the T/C runs as follows: under setting [5], 111 % of control; under setting [6], 110 % of control.

Consider `OC1CN(C(c2ccccc2)c2ccccc2)C1`, for which the T/C reads like this: under setting [7], 100 % of control; under setting [8], 108 % of control; (dose: 200.0 mg/kg/injection, schedule: Q01DX009 (ip), vehicle: Klucel (hydroxypropylcellulose) (HPC)) 104 % of control.

For the compound `C=C1C(=O)C23CC1CCC2C12COC(OC(=O)CCCCCCCCCCCCC)C1C(C)(C)C(O)CC2OC3=O` (configuration not stated), the T/C reads like this: (dose: 7.5 mg/kg/injection, schedule: Q01DX009 (ip), vehicle: saline with Tween-80) 109 % of control; (dose: 15.0 mg/kg/injection, schedule: Q01DX009 (ip), vehicle: saline with Tween-80) 109 % of control; (dose: 30.0 mg/kg/injection, schedule: Q01DX009 (ip), vehicle: saline with Tween-80) 100 % of control; (dose: 60.0 mg/kg/injection, schedule: Q01DX009 (ip), vehicle: saline with Tween-80) 111 % of control.

In the case of `C[N+]1(C)CCC(Cl)CC1`, the T/C was 104 % of control (dose: 3.75 mg/kg/injection, schedule: Q01DX005 (ip), vehicle: saline); 103 % of control (dose: 7.5 mg/kg/injection, schedule: Q01DX005 (ip), vehicle: saline); 99 % of control (dose: 15.0 mg/kg/injection, schedule: Q01DX005 (ip), vehicle: saline); 100 % of control and 102 % of control (dose: 30.0 mg/kg/injection, schedule: Q01DX005 (ip), vehicle: saline).

Regarding `CCOC(=O)CC(=N)C(C#N)C(=O)OCC` (configuration not stated), the T/C was 101 % of control (dose: 6.25 mg/kg/injection, schedule: Q01DX009 (ip), vehicle: saline with Tween-80); 101 % of control (dose: 12.5 mg/kg/injection, schedule: Q01DX009 (ip), vehicle: saline with Tween-80); 99 % of control under setting [1]; 99 % of control under setting [2].

With `C#CCSc1ncnc2nc[nH]c12`, the T/C was 95 % of control (dose: 25.0 mg/kg/injection, schedule: Q01DX009 (ip), vehicle: saline); 104 % of control (dose: 25.0 mg/kg/injection, schedule: Q04DX003 (ip), vehicle: saline); 109 % of control under setting [9]; 100 % of control (dose: 50.0 mg/kg/injection, schedule: Q04DX003 (ip), vehicle: saline); 86 % of control under setting [10]; 100 % of control (dose: 100.0 mg/kg/injection, schedule: Q04DX003 (ip), vehicle: saline).

As for `O=C1OC2(c3ccccc31)c1cc(I)c(O)c(I)c1Oc1c2cc(I)c(O)c1I`, the T/C is 91 % of control under setting [11] and 95 % of control (dose: 200.0 mg/kg/injection, schedule: Q04DX003 (ip), vehicle: saline with Tween-80).

In the case of `CSC(CNC(=O)N(CCCl)N=O)n1cc(F)c(=O)[nH]c1=O` (configuration not stated), the T/C is 161 % of control (dose: 3.12 mg/kg/injection, schedule: Q04DX003 (ip), vehicle: saline with Tween-80); 158 % of control and 171 % of control (dose: 6.25 mg/kg/injection, schedule: Q04DX003 (ip), vehicle: saline with Tween-80); 220 % of control and 264 % of control (dose: 12.5 mg/kg/injection, schedule: Q04DX003 (ip), vehicle: saline with Tween-80); 266 % of control and 285 % of control under setting [12]; 275 % of control and 285 % of control under setting [13]; 110 % of control and 123 % of control under setting [11].

Regarding `FC(F)(F)C1(C(F)(F)F)[O][Sb]([c]2ccccc2)([c]2ccccc2)([c]2ccccc2)[O]1`, the T/C is, setting by setting: under setting [7], 100 % of control; under setting [8], 101 % of control.

Regarding `CCOC(=O)NC(NC(=O)OCC)c1cccnc1`, the T/C by setting is: (dose: 200.0 mg/kg/injection, schedule: Q04DX003 (ip), vehicle: saline) 94 % of control; (dose: 400.0 mg/kg/injection, schedule: Q04DX003 (ip), vehicle: saline) 101 % of control.

As for `COc1cc(/C=C(/C)[N+](=O)[O-])cc(Br)c1OC`, the T/C by setting is: under setting [12], 108 % of control; under setting [13], 109 % of control; under setting [11], 109 % of control.

For `CN1C2=NCCN2S(=O)(=O)c2ccccc21`, the T/C is 101 % of control under setting [3]; 110 % of control under setting [6]; 92 % of control (dose: 400.0 mg/kg/injection, schedule: Q01DX001 (ip), vehicle: saline with Tween-80).

Turning to `C=C1CC2(CCCCC2C(C)(C)C)OC1=O` (configuration not stated), the T/C runs as follows: (dose: 100.0 mg/kg/injection, schedule: Q04DX002 (ip), vehicle: saline) 100 % of control; (dose: 200.0 mg/kg/injection, schedule: Q04DX002 (ip), vehicle: saline) 99 % of control; (dose: 400.0 mg/kg/injection, schedule: Q04DX002 (ip), vehicle: saline) 99 % of control.

With `CC(=NCCN=C(C)c1cc(C)cc(Br)c1O)c1cc(C)cc(Br)c1O`, the T/C under setting [14] was 108 % of control, the T/C under setting [15] was 101 % of control and the T/C under setting [16] was 117 % of control.

Turning to `CCOC(=O)CCC(NC(=O)C1CCC(=O)N1)C(=O)OCC` (configuration not stated) ([pGlu]-Glu(OEt)-OEt; configuration not given here), the T/C runs as follows: under setting [17], 96 % of control; under setting [4], 91 % of control; under setting [18], 98 % of control.

In the case of `CN(C)c1ccc(C=NCCC[Si]23OCCN(CCO2)CCO3)cc1`, the T/C is, setting by setting: under setting [14], 106 % of control; under setting [15], 100 % of control; under setting [16], 111 % of control.

As to `CCOC(=O)C(CNc1ccc(OCc2ccccc2)cc1)NC(=O)c1ccccc1` (configuration not stated), the T/C under setting [2] is 105 % of control; the T/C under setting [9] is 96 % of control; the T/C under setting [5] is 100 % of control; the T/C under setting [10] is 88 % of control; the T/C (dose: 200.0 mg/kg/injection, schedule: Q01DX009 (ip), vehicle: saline with Tween-80) is 87 % of control; the T/C (dose: 200.0 mg/kg/injection, schedule: Q01DX009 (ip), vehicle: saline) is 88 % of control. For the same compound, for the setting “dose: 400.0 mg/kg/injection, schedule: Q01DX009 (ip), vehicle: saline with Tween-80”, the T/C was 91 % of control.

For the compound `c1ccc2c(c1)C1OC2c2c1ccc1ccccc21` (configuration not stated), the T/C runs as follows: under setting [17], 97 % of control; under setting [4], 90 % of control; under setting [18], 88 % of control.

Consider `COC(=O)C1(CC(=O)c2ccc(Cl)c(Cl)c2)NC(=S)NC(=O)C1C#N` (configuration not stated), for which the T/C by setting is: (dose: 60.0 mg/kg/injection, schedule: Q01DX005 (ip), vehicle: saline with Tween-80) 106 % of control; (dose: 120.0 mg/kg/injection, schedule: Q01DX005 (ip), vehicle: saline with Tween-80) 97 % of control; (dose: 240.0 mg/kg/injection, schedule: Q01DX005 (ip), vehicle: saline with Tween-80) 96 % of control.

Turning to `NC(=S)c1ccccc1N=Cc1ccccn1`, the T/C runs as follows: (dose: 100.0 mg/kg/injection, schedule: Q04DX003 (ip), vehicle: Klucel (hydroxypropylcellulose) (HPC)) 100 % of control; (dose: 200.0 mg/kg/injection, schedule: Q04DX003 (ip), vehicle: Klucel (hydroxypropylcellulose) (HPC)) 107 % of control.

With `NC(=S)c1ccc(C=Nc2ccccc2)cc1`, the T/C reads like this: (dose: 50.0 mg/kg/injection, schedule: Q01DX001 (ip), vehicle: Klucel (hydroxypropylcellulose) (HPC)) 101 % of control; (dose: 100.0 mg/kg/injection, schedule: Q01DX001 (ip), vehicle: Klucel (hydroxypropylcellulose) (HPC)) 99 % of control; (dose: 200.0 mg/kg/injection, schedule: Q01DX001 (ip), vehicle: Klucel (hydroxypropylcellulose) (HPC)) 100 % of control.
